Experimental data reported in patent publication US8895761B2, “4-phenylpyrane-3,5-diones, 4-phenylthiopyrane-3,5-diones and 2-phenylcyclohexane-1,3,5-triones as herbicides” (Syngenta Limited, priority 2007, dated 2014).

Key:
Type in all cases: in vivo
Lolium perenne (LOLPE) [1] = test: Post-emergence herbicidal glasshouse test, Lolium perenne; conditions: 312 h, rate 250 g/ha, evaluated after 13 days, scale 100 = total damage to plant, 0 = no damage
Procedure: (§1) Seeds of a variety of test species were sown in standard soil in pots. After cultivation for one day (pre-emergence) or after 8 days cultivation (post-emergence) under controlled conditions in a glasshouse (at 24/16° C., day/night; 14 hours light; 65% humidity), the plants were sprayed with an aqueous spray solution derived from the formulation of the technical active ingredient in acetone/water (50:50) solution containing 0.5% Tween 20 (polyoxyethelyene sorbitan monolaurate, CAS RN 9005-64-5). The test plants were then grown in a glasshouse under controlled conditions in a glasshouse (at 24/16° C., day/night; 14 hours light; 65% humidity) and watered twice daily. After 13 days for pre and post-emergence, the test was evaluated ([…] to plant; 0=no damage to plant).
(§2) Setaria faberi (SETFA), Lolium perenne (LOLPE), Alopecurus myosuroides (ALOMY), Echinochloa crus-galli (ECHCG) and Avena fatua (AVEFA).

Avena fatua (AVEFA) [2] = test: Pre-emergence herbicidal glasshouse test, Avena fatua; conditions: Avena fatua, 312 h, rate 250 g/ha, evaluated after 13 days, scale 100 = total damage to plant, 0 = no damage
Procedure: as §1, §2

[3] = tested on: Echinochloa crus-galli (ECHCG); test: Pre-emergence herbicidal glasshouse test, Echinochloa crus-galli; conditions: Echinochloa crus-galli, 312 h, rate 250 g/ha, evaluated after 13 days, scale 100 = total damage to plant, 0 = no damage
Procedure: as §1, §2

[4] = tested on: Alopecurus myosuroides (ALOMY); test: Pre-emergence herbicidal glasshouse test, Alopecurus myosuroides; conditions: Alopecurus myosuroides, 312 h, rate 250 g/ha, evaluated after 13 days, scale 100 = total damage to plant, 0 = no damage
Procedure: as §1, §2

Avena fatua (AVEFA) [5] = test: Post-emergence herbicidal glasshouse test, Avena fatua; conditions: Avena fatua, 312 h, rate 250 g/ha, evaluated after 13 days, scale 100 = total damage to plant, 0 = no damage
Procedure: as §1, §2

[6] = tested on: Echinochloa crus-galli (ECHCG); test: Post-emergence herbicidal glasshouse test, Echinochloa crus-galli; conditions: Echinochloa crus-galli, 312 h, rate 250 g/ha, evaluated after 13 days, scale 100 = total damage to plant, 0 = no damage
Procedure: as §1, §2

[7] = tested on: Alopecurus myosuroides (ALOMY); test: Post-emergence herbicidal glasshouse test, Alopecurus myosuroides; conditions: Alopecurus myosuroides, 312 h, rate 250 g/ha, evaluated after 13 days, scale 100 = total damage to plant, 0 = no damage
Procedure: as §1, §2

Lolium perenne (LOLPE) [8] = test: Pre-emergence herbicidal glasshouse test, Lolium perenne; conditions: 312 h, rate 250 g/ha, evaluated after 13 days, scale 100 = total damage to plant, 0 = no damage
Procedure: as §1, §2

SMILES | pest or weed control at 250 g/ha (Lolium perenne (LOLPE) [1]) | pest or weed control at 250 g/ha (Avena fatua (AVEFA) [2]) | pest or weed control at 250 g/ha [3] | pest or weed control at 250 g/ha [4] | pest or weed control at 250 g/ha (Avena fatua (AVEFA) [5]) | pest or weed control at 250 g/ha [6] | pest or weed control at 250 g/ha [7] | pest or weed control at 250 g/ha (Lolium perenne (LOLPE) [8])
CCc1cc(-c2c(F)cc(F)cc2F)ccc1C1=C(O)C(C)(COC)OC(C)(C)C1=O (stereo not drawn) [Compound A-116] | 70% | 60% | 100% | 90% | 60% | 100% | 90% | 70%
CCc1cc(-c2ccc(Cl)cc2Cl)ccc1C1=C(O)C(C)(C)OC(C)(C)C1=O [Compound A-36] | 40% | 0% | 0% | 0% | 20% | 60% | 30% | 0%
CCc1cc(-c2ccc(Cl)cn2)ccc1C1=C(O)C(C)(C)OC(C)(C)C1=O [Compound A-43] | 80% | 30% | 70% | 20% | 70% | 100% | 80% | 50%
CCc1cc(-c2ccc(F)c(F)c2)ccc1C1=C(O)C(C)(C)SC(C)(C)C1=O [Compound B-5] | 60% | 20% | 0% | 50% | 70% | 60% | 70% | 30%
CCc1cc(-c2cc(Cl)cc(C(F)(F)F)c2)ccc1C1=C(O)C(C)(C)OC(C)(C)C1=O [Compound A-83] | 70% | 0% | 0% | 0% | 50% | 80% | 80% | 0%
CCc1cc(-c2ccc(Cl)cc2F)ccc1C1=C(O)[C@@]2(C)CC[C@H](O2)C1=O (racemic) [Compound A-14] | 100% | 50% | 80% | 50% | 100% | 100% | 80% | 80%
CCc1cc(-c2ccc(F)c(F)c2)ccc1C1=C(O)C(C)(CC)OC(C)(CC)C1=O (stereo not drawn) [Compound A-129] | 80% | 10% | 90% | 30% | 70% | 90% | 90% | 30%
CCc1cc(-c2ccc(C)cc2)ccc1C1=C(O)C(C)(C)OC(C)(C)C1=O [Compound A-73] | 60% | 0% | 0% | 0% | 0% | 80% | 30% | 0%
CCc1cc(-c2ccc(F)c(F)c2)ccc1C1=C(O)C(C)(C)S(=O)(=O)C(C)(C)C1=O [Compound B-17] | 70% | 10% | 10% | 50% | 70% | 50% | 80% | 50%
CCc1cc(-c2ccc(Cl)c(C)c2)ccc1C1=C(O)C(C)(C)OC(C)(C)C1=O [Compound A-52] | 40% | 0% | 20% | 0% | 20% | 70% | 40% | 0%
CCc1cc(-c2cccc(Cl)c2)ccc1C1=C(O)C(C)(C)OC(C)(C)C1=O [Compound A-95] | 80% | 0% | 30% | 10% | 50% | 80% | 80% | 30%
CCc1cc(-c2ccc(F)c(OC)c2)ccc1C1=C(O)C(C)(COC)OC(C)(C)C1=O (stereo not drawn) [Compound A-112] | 90% | 80% | 100% | 80% | 80% | 100% | 80% | 90%
CCc1cc(-c2ccc(Cl)c(Cl)c2F)ccc1C1=C(O)C(C)(C)OC(C)(C)C1=O [Compound A-48] | 30% | 0% | 0% | 0% | 20% | 100% | 50% | 0%
CCc1cc(-c2cc(F)c(F)c(F)c2)ccc1C1=C(O)C(C)(C)OC(C)(C)C1=O [Compound A-84] | 100% | 40% | 30% | 30% | 100% | 100% | 80% | 70%
CCc1cc(-c2ccc(F)cc2)ccc1C1=C(O)C(C)(COC)OC(C)(C)C1=O (stereo not drawn) [Compound A-101] | 100% | 50% | 50% | 70% | 100% | 100% | 100% | 90%
CCc1cc(-c2ccc(F)c(F)c2F)ccc1C1=C(O)C(C)(C)SC(C)(C)C1=O [Compound B-9] | 60% | 0% | 0% | 10% | 80% | 40% | 60% | 10%
Cc1cc(-c2ccc(F)cc2)cc(C)c1C1=C(O)[C@@]2(C)CC[C@H](O2)C1=O [Compound A-55] | 100% | 70% | 100% | 70% | 90% | 100% | 100% | 90%
CCc1cc(-c2ccc(F)c(F)c2)ccc1C1=C(O)C(C)(C)OC(C)(C)C1=O [Compound A-75] | 100% | 30% | 0% | 0% | 90% | 100% | 90% | 40%
